Reference: patent publication US5654139A (The United States of America as represented by the …, priority 1994, dated 1997)

How the values were obtained:
human 5-HT2Ccys receptor = target: T1, human 5-HT2Ccys receptor (Homo sapiens, UniProt P28335); test: Two-electrode voltage-clamp recording of 5-HT-activated currents in Xenopus oocytes expressing 5-HT2Ccys; type: cell-based
T1 construct: consisting of the entire coding region of the 5-HT2C receptor; expressed in transfected cells; host or cells: Xenopus laevis oocytes injected with cRNA
T1 sequence (P28335 33-458): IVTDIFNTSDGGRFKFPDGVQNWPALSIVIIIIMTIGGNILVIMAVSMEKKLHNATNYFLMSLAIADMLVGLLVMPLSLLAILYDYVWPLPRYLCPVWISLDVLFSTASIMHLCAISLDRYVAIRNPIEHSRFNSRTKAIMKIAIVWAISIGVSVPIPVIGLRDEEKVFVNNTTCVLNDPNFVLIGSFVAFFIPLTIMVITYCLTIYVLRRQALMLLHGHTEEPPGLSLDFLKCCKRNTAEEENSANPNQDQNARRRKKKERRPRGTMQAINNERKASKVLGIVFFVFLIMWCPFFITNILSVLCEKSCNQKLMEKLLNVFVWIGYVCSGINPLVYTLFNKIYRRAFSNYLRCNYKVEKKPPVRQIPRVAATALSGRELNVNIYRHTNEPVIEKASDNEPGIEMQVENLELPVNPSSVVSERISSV

human 5-HT2Cser receptor = target: T2, human 5-HT2Cser receptor (Homo sapiens, UniProt P28335); test: Two-electrode voltage-clamp recording of 5-HT-activated currents in Xenopus oocytes expressing 5-HT2Cser; type: cell-based
T2 construct: consisting of the entire coding region of the 5-HT2C receptor; expressed in transfected cells; host or cells: Xenopus laevis oocytes injected with cRNA
T2 sequence (P28335 33-458): T1 sequence (P28335 33-458)

[1] = 1 μM PPRZ, voltage-clamp at -70 mV

Structure (SMILES): Cl.c1ccc2c(N3CCNCC3)cccc2c1 [PPRZ, 1-(1-naphthyl) piperazine HCL]
- effect on currents activated by 10 nM 5-HT (human 5-HT2Ccys receptor; [1]): suppressed
- reversibility of the effect of PPRZ on 5-HT-activated response (human 5-HT2Ccys receptor; after a 20 min wash): reversible
- effect on currents activated by 10 nM 5-HT (human 5-HT2Cser receptor; [1]): suppressed
- reversibility of the effect of PPRZ on 5-HT-activated response (human 5-HT2Cser receptor; after a 20 min wash): reversible
